This is an account of results in US12338203B2 (TAISHO PHARMACEUTICAL CO., LTD., priority 2019, dated 2025).

In the experiment the target is T1, human LPAR1 (Homo sapiens, UniProt Q92633).
T1 construct: expressed in transfected cells
T1 sequence (Q92633 whole entry): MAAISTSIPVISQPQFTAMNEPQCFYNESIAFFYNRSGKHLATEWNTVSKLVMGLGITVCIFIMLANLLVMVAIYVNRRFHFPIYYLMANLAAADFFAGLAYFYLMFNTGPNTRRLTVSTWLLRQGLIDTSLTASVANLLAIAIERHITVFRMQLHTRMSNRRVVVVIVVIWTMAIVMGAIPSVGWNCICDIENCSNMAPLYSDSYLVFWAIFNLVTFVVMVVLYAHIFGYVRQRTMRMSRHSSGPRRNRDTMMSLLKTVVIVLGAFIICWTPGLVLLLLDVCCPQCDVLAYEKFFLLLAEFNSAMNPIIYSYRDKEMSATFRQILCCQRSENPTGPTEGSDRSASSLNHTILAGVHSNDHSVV
Kind of experiment: Test Example 1: antagonism against response of LPA-induced increase in intracellular Ca2+ concentration in RH7777 cells stably expressing human LPAR1. The settings on record: RH7777 cells stably expressing human LPAR1; Fluo-4 fluorescence, FDSS6000; read-out: IC50 value (concentration producing 50% antagonism against response of LPA-induced increase in intracellular Ca2+ concentration) (converted). The format is cell-based. Summed up:
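Ca2+ flux read at 540 nm emission (480 nm excitation) after LPA addition to human LPAR1-expressing RH7777 cells exposed to compound for 30 min, 37 °C, pH 7.4 HEPES-buffered HBSS. Response relative to no-compound control after basal subtraction; IC50 fitted from concentration–response.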
With `CCOc1c(C2CC2)ccc([C@@H](C)N(CCO[C@H](C)c2cccc(Cl)c2)C(=O)NC2(C(=O)O)CC(F)(F)C2)c1C` [Example 4-181], the IC50 is 3.27 nM. For `CCOc1cc(OCC)cc(C(C)N(CCCCc2ccccc2)C(=O)NC2(C(=O)O)CC(F)(F)C2)c1` (centres unmarked) [Example 5-1, 1-({[1-(3,5-Diethoxyphenyl)Ethyl](4-Phenylbutyl) Carbamoyl}Amino)-3,3-Difluorocyclobutane-1-Carboxylic Acid] the value was 99.6 nM.

Regarding `O=C(NC1(C(=O)O)CCCC1)N(CCCCc1ccccc1)Cc1cccc(Cl)c1` [Example 5-2], the IC50 is 4520 nM. For `CCOc1cccc(C(C)N(CCCCc2ccccc2)C(=O)NC2(C(=O)O)CC(F)(F)C2)c1` (centres unmarked) [Example 5-3] the value was 45.5 nM; for `CC(=O)c1ccc(C(C)N(CCCCc2ccccc2)C(=O)NC2(C(=O)O)CC(F)(F)C2)cc1` (centres unmarked) [Example 5-4], 128 nM. For `CC(c1ccc(C#N)cc1)N(CCCCc1ccccc1)C(=O)NC1(C(=O)O)CC(F)(F)C1` (centres unmarked) [Example 5-5] the value was 39.7 nM; for `CC(c1ccc(F)cc1)N(CCCCc1ccccc1)C(=O)NC1(C(=O)O)CC(F)(F)C1` (centres unmarked) [Example 5-6], 164 nM. Regarding `Cc1ccc(C(C)N(CCCCc2ccccc2)C(=O)NC2(C(=O)O)CC(F)(F)C2)cc1` (centres unmarked) [Example 5-7], the IC50 is 132 nM. Then `CCOc1cc(C(C)N(CCCCc2ccccc2)C(=O)NC2(C(=O)O)CC(F)(F)C2)ccc1C(C)=O` (centres unmarked) [Example 5-8], with 3.62 nM; and `CCOc1cc(C(C)N(CCCCc2ccccc2)C(=O)NC2(C(=O)O)CC(F)(F)C2)ccc1C(C)O` (centres unmarked) [Example 5-9], with 2.82 nM.

As for `CCOc1cc(OCC)cc(C(C)N(CCCCc2ccccc2)C(=O)NC2(C(=O)O)CCCC2)c1` (centres unmarked) [Example 5-10], the IC50 is 35.4 nM. Take `CCOc1cc(OCC)cc(C(C)N(CCCCc2ccccc2)C(=O)NC2(C(=O)O)Cc3ccccc3C2)c1` (centres unmarked) [Example 5-11]: the IC50 was 79.7 nM.

As to `CCOc1cc(OCC)cc([C@@H](C)N(CCCCc2ccccc2)C(=O)NC2(C(=O)O)Cc3ccccc3C2)c1` [Example 5-12], the IC50 is 45.4 nM. Then `COc1cc(OC)cc(C(C)N(CCCCc2ccccc2)C(=O)NC2(C(=O)O)CC(F)(F)C2)c1` (centres unmarked) [Example 5-13], with 4.32 nM; and `COCc1cc(OC)cc(C(C)N(CCCCc2ccccc2)C(=O)NC2(C(=O)O)CC(F)(F)C2)c1` (centres unmarked) [Example 5-14], with 19.1 nM; and `CCCc1cc(OCC)cc(C(C)N(CCCCc2ccccc2)C(=O)NC2(C(=O)O)CC(F)(F)C2)c1` (centres unmarked) [Example 5-15], with 6.1 nM.

Take `CCCOc1cc(OC)cc(C(C)N(CCCCc2ccccc2)C(=O)NC2(C(=O)O)CC(F)(F)C2)c1` (centres unmarked) [Example 5-16]: the IC50 was 8.97 nM.

On to `CCCOc1cc(OCC)cc(C(C)N(CCCCc2ccccc2)C(=O)NC2(C(=O)O)CC(F)(F)C2)c1` (centres unmarked) [Example 5-17], for which the IC50 is 8.86 nM. For `CCCOc1cc(OCCC)cc(C(C)N(CCCCc2ccccc2)C(=O)NC2(C(=O)O)CC(F)(F)C2)c1` (centres unmarked) [Example 5-18] the value was 11 nM; for `CCOc1cc(C#N)cc(C(C)N(CCCCc2ccccc2)C(=O)NC2(C(=O)O)CC(F)(F)C2)c1` (centres unmarked) [Example 5-20], 3.92 nM; for `CC(c1cc(Cl)cc(Cl)c1)N(CCCCc1ccccc1)C(=O)NC1(C(=O)O)CC(F)(F)C1` (centres unmarked) [Example 5-21], 17.1 nM.

Turning to `COc1cc(Br)cc(C(C)N(CCCCc2ccccc2)C(=O)NC2(C(=O)O)CC(F)(F)C2)c1` (centres unmarked) [Example 5-22], the IC50 is 7.13 nM. Consider `Cc1cc(C)cc(CN(CCCCc2ccccc2)C(=O)NC2(C(=O)O)CCCC2)c1` [Example 5-23], for which the IC50 was 3930 nM. For `CC(c1cc(C(F)(F)F)cc(C(F)(F)F)c1)N(CCCCc1ccccc1)C(=O)NC1(C(=O)O)CC(F)(F)C1` (centres unmarked) [Example 5-24] the value was 75.8 nM. Then `CCOc1cc(C(=O)NC)cc(C(C)N(CCCCc2ccccc2)C(=O)NC2(C(=O)O)CC(F)(F)C2)c1` (centres unmarked) [Example 5-25], with 43.2 nM; and `CCOc1cc([C@@H](C)N(CCO[C@@H](C)c2ccccc2)C(=O)N[C@]2(C(=O)O)C[C@@H](OCC)C2)c(Cl)c(OCC)c1C(C)=O` [Example 5-26, Trans-1-[([(1R)-1-(4-Acetyl-2-Chloro-3,5-Diethoxyphenyl)Ethyl]{2-[(1S)-1-Phenylethoxy]Ethyl}Carbamoyl)Amino]-3-Ethoxycyclobutane-1-Carboxylic Acid], with 1.46 nM. Take `CCOc1cc([C@@H](C)N(CCO[C@@H](C)c2ccccc2)C(=O)N[C@]2(C(=O)O)C[C@H](OCC)C2)c(Cl)c(OCC)c1C(C)=O` [Example 5-27]: the IC50 is 3.84 nM.

As for `CCOc1cc([C@@H](C)N(CCO[C@@H](C)c2ccccc2)C(=O)N[C@]2(C(=O)O)C[C@@H](OC)C2)c(Cl)c(OCC)c1C(C)=O` [Example 5-28], the IC50 was 2.31 nM. For `CCOc1cc([C@@H](C)N(CCO[C@@H](C)c2ccccc2)C(=O)N[C@]2(C(=O)O)C[C@H](OC)C2)c(Cl)c(OCC)c1C(C)=O` [Example 5-29] the value was 4.63 nM. For `CCOc1cc([C@@H](C)N(CCO[C@@H](C)c2ccccc2)C(=O)NC2(C(=O)O)CCC2)c(Cl)c(OCC)c1C(C)=O` [Example 5-30] the value was 2.15 nM; for `CCOc1cc([C@@H](C)N(CCO[C@@H](C)c2ccccc2)C(=O)NC2(C(=O)O)CC2)c(Cl)c(OCC)c1C(C)=O` [Example 5-31, 1-[([(1R)-1-(4-acetyl-2-chloro-3,5-diethoxyphenyl)ethyl]{2-[(1S)-1-phenylethoxy]ethyl}carbamoyl)amino]cyclopropane-1-carboxylic acid], 2.59 nM. Then `CCOc1cc([C@@H](C)N(CCO[C@@H](C)c2ccccc2)C(=O)NC2(C(=O)O)CC(F)(F)C2)c(Cl)c(OCC)c1C(C)=O` [Example 5-32], with 2.04 nM. For `CCOc1cc([C@@H](C)N(CCO[C@@H](C)c2ccccc2)C(=O)NC2(C(=O)O)CCOCC2)c(Cl)c(OCC)c1C(C)=O` [Example 5-33], the IC50 was 2.77 nM. Then `CCOc1cc([C@@H](C)N(CCO[C@H](C)c2ccccc2)C(=O)NC2(C(=O)O)CCOCC2)c(Cl)c(OCC)c1C(C)=O` [Example 5-34], with 4.18 nM; and `CCOc1cc([C@@H](C)N(CCO[C@H](C)c2ccccc2)C(=O)N[C@]2(C(=O)O)C[C@@H](OC)C2)c(Cl)c(OCC)c1C(C)=O` [Example 5-35], with 3.97 nM; and `CCOc1cc([C@@H](C)N(CCOCc2ccccc2)C(=O)N[C@]2(C(=O)O)C[C@@H](OC)C2)c(Cl)c(OCC)c1C(C)=O` [Example 5-36], with 1.62 nM.

Take `CCOc1cc([C@@H](C)N(CCOCc2ccccc2)C(=O)NC2CC(C(=O)O)C2)c(Cl)c(OCC)c1C(C)=O` (some centres unmarked) [Example 5-37]: the IC50 was 292 nM. In the case of `CCOc1cc([C@@H](C)N(CCOCc2ccccc2)C(=O)NC2(C(=O)O)CC(F)(F)C2)c(Cl)c(OCC)c1C(C)=O` [Example 5-38], the IC50 was 0.468 nM. Then `CCOc1cc([C@@H](C)N(CCOCc2ccccc2)C(=O)NC2(C(=O)O)CCOCC2)c(Cl)c(OCC)c1C(C)=O` [Example 5-39], with 0.516 nM. Turning to `CCOc1cc([C@@H](C)N(CCC(F)(F)Cc2ccccc2)C(=O)NC2(C(=O)O)CC(F)(F)C2)c(Cl)c(OCC)c1C(C)=O` [Example 5-40], the IC50 was 4.63 nM. Then `CCOc1cc([C@@H](C)N(CCC(F)(F)Cc2ccccc2)C(=O)NC2(C(=O)O)CC(OC)C2)c(Cl)c(OCC)c1C(C)=O` (some centres unmarked) [Example 5-41], with 10.3 nM.
